What was measured:
[1] = system: CDK8 (phosphorylation of STAT1 at serine 727 in A549 cells); experiment: Cell based Phospho-STAT1 assay (IFNγ-stimulated A549 cells, AlphaLISA); settings: Homo sapiens, phospho-STAT1 after IFNγ stimulation
Outline: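 A549 cells given serial compound dilutions for 1 h at 37 °C, then stimulated with IFNγ at 10 ng/mL final for 30 min. Lysate STAT1 Ser727 phosphorylation measured by AlphaLISA; % inhibition vs stimulated/unstimulated DMSO controls, IC50 by nonlinear regression.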

[2] = system: CDK8 (TCF/LEF luciferase reporter in HCT116 cells); experiment: Cell based TCF/LEF reporter assay (HCT116+TCF/LEF luciferase); settings: Homo sapiens
Outline: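 HCT116 cells stably carrying a TCF/LEF-luciferase reporter (endogenous mutant β-catenin), seeded overnight, then exposed to serial compound dilutions for 24 h at 37 °C. Luminescence normalized to CellTiter-Fluor viability signal. % inhibition relative to DMSO and 10 uM CCT251545 controls, with IC50 from nonlinear regression.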

| Compound | IC50 ([1]; A549, A549 cells) [nM] | IC50 ([2]; HCT-116, 24 h) [nM] | IC50 ([1]; A549 cells) [nM] | IC50 ([2]; HCT-116, 24 hours) [nM] |
| --- | --- | --- | --- | --- |
| CC(C)(C#Cc1cccn2ncc(-c3ccc4c(cnn4C(F)F)c3)c12)C(N)=O [Compound P-0068, 4-(3-(1-(difluoromethyl)-1H-indazol-5-yl)pyrazolo[1,5-a]pyridin-4-yl)-2,2-dimethylbut-3-ynamide] | 0.1 to 100 | 0.1 to 100 | – | – |
| CCCS(=O)(=O)Nc1ccc2cc(-c3cnn4ccnc(C#CC(C)(C)C(N)=O)c34)ccc2c1 [Compound P-0069, 2,2-dimethyl-4-(3-(6-(propylsulfonamido)naphthalen-2-yl)pyrazolo[1,5-a]pyrazin-4-yl)but-3-ynamide] | 0.1 to 100 | 0.1 to 100 | – | – |
| N#CC1CC=C(c2nccn3ncc(-c4ccc5[nH]ncc5c4)c23)CC1 (stereo not drawn) [Compound P-0070, 4-(3-(1H-indazol-5-yl)pyrazolo[1,5-a]pyrazin-4-yl)cyclohex-3-ene-1-carbonitrile] | 0.1 to 100 | 0.1 to 100 | – | – |
| Cc1n[nH]c2cc(-c3cnn4ccnc(C5=CCC(C#N)CC5)c34)ccc12 (stereo not drawn) [Compound P-0071, 4-(3-(3-methyl-1H-indazol-6-yl)pyrazolo[1,5-a]pyrazin-4-yl)cyclohex-3-ene-1-carbonitrile] | 0.1 to 100 | 0.1 to 100 | – | – |
| N#CC1CC=C(c2nccn3ncc(-c4cc5ccccc5s4)c23)CC1 (stereo not drawn) [Compound P-0073, 4-(3-(benzo[b]thiophen-2-yl)pyrazolo[1,5-a]pyrazin-4-yl)cyclohex-3-ene-1-carbonitrile] | 0.1 to 100 | 0.1 to 100 | – | – |
| N#CC1CC=C(c2nccn3ncc(-c4ccnc(NC5CCCC5)c4)c23)CC1 (stereo not drawn) [Compound P-0074] | 100 to 1000 | 100 to 1000 | – | – |
| N#CC1CC=C(c2nccn3ncc(-c4cnn(C5CC5)c4)c23)CC1 (stereo not drawn) [Compound P-0076, 4-(3-(1-cyclopropyl-1H-pyrazol-4-yl)pyrazolo[1,5-a]pyrazin-4-yl)cyclohex-3-ene-1-carbonitrile] | 100 to 1000 | 100 to 1000 | – | – |
| Cc1ncc(-c2cnn3ccnc(C4=CCC(C#N)CC4)c23)s1 (stereo not drawn) [Compound P-0077, 4-(3-(2-methylthiazol-5-yl)pyrazolo[1,5-a]pyrazin-4-yl)cyclohex-3-ene-1-carbonitrile] | 100 to 1000 | 100 to 1000 | – | – |
| N#CC1CC=C(c2nccn3ncc(-c4ccc(OCC(O)CN5CCOCC5)cc4)c23)CC1 (stereo not drawn) [Compound P-0078, 4-(3-(4-(2-hydroxy-3-morpholinopropoxy)phenyl)pyrazolo[1,5-a]pyrazin-4-yl)cyclohex-3-ene-1-carbonitrile] | 0.1 to 100 | 0.1 to 100 | – | – |
| N#CC1CC=C(c2nccn3ncc(-c4ccc(OCC5CCCCO5)cc4)c23)CC1 (stereo not drawn) [Compound P-0079, 4-(3-(4-((tetrahydro-2H-pyran-2-yl)methoxy)phenyl)pyrazolo[1,5-a]pyrazin-4-yl)cyclohex-3-ene-1-carbonitrile] | 0.1 to 100 | 0.1 to 100 | – | – |
| CC(=O)Nc1cc(-c2cnn3ccnc(C4=CCC(C#N)CC4)c23)ccn1 (stereo not drawn) [Compound P-0080, N-(4-(4-(4-cyanocyclohex-1-ene-1-yl)pyrazolo[1,5-a]pyrazin-3-yl)pyridin-2-yl)acetamide] | 0.1 to 100 | 0.1 to 100 | – | – |
| N#CC1CC=C(c2nccn3ncc(-c4ccc(Cl)c(F)c4)c23)CC1 (stereo not drawn) [Compound P-0083, 4-(3-(4-chloro-3-fluorophenyl)pyrazolo[1,5-a]pyrazin-4-yl)cyclohex-3-ene-1-carbonitrile] | 100 to 1000 | 100 to 1000 | – | – |
| N#CC1CC=C(c2nccn3ncc(-c4ccc(OCC(O)CN5CCCCC5)cc4)c23)CC1 (stereo not drawn) [Compound P-0084, 4-(3-(4-(2-hydroxy-3-(piperidin-1-yl)propoxy)phenyl)pyrazolo[1,5-a]pyrazin-4-yl)cyclohex-3-ene-1-carbonitrile] | 0.1 to 100 | 0.1 to 100 | – | – |
| N#CC1CC=C(c2nccn3ncc(-c4ccc(OCCN5CCOCC5)cc4)c23)CC1 (stereo not drawn) [Compound P-0085, 4-(3-(4-(2-morpholinoethoxy)phenyl)pyrazolo [1,5-a]pyrazin-4-yl)cyclohex-3-ene-1-carbonitrile] | 0.1 to 100 | 0.1 to 100 | – | – |
| N#CC1CC=C(c2nccn3ncc(-c4ccc(OCCCN5CCCCC5)cc4)c23)CC1 (stereo not drawn) [Compound P-0086, 4-(3-(4-(3-(piperidin-1-yl)propoxy)phenyl)pyrazolo[1,5-a]pyrazin-4-yl)cyclohex-3-ene-1-carbonitrile] | 0.1 to 100 | 100 to 1000 | – | – |
| COc1ccc(-c2cnn3ccnc(C4=CCC(C#N)CC4)c23)cn1 (stereo not drawn) [Compound P-0087, 4-(3-(6-methoxypyridin-3-yl)pyrazolo[1,5-a]pyrazin-4-yl)cyclohex-3-ene-1-carbonitrile] | 100 to 1000 | 100 to 1000 | – | – |
| COc1ccc(-c2cnn3ccnc(C4=CCC(C#N)CC4)c23)cc1 (stereo not drawn) [Compound P-0088, 4-(3-(4-methoxyphenyl)pyrazolo[1,5-a]pyrazin-4-yl)cyclohex-3-ene-1-carbonitrile] | 0.1 to 100 | 0.1 to 100 | – | – |

| Compound | IC50 ([1]; A549, A549 cells) [nM] | IC50 ([2]; HCT-116, 24 h) [nM] | IC50 ([1]; A549 cells) [nM] | IC50 ([2]; HCT-116, 24 hours) [nM] |
| --- | --- | --- | --- | --- |
| N#CC1CC=C(c2nccn3ncc(-c4ccc(F)cc4)c23)CC1 (stereo not drawn) [Compound P-0089, 4-(3-(4-fluorophenyl)pyrazolo[1,5-a]pyrazin-4-yl)cyclohex-3-ene-1-carbonitrile] | 0.1 to 100 | 100 to 1000 | – | – |
| N#CC1CC=C(c2nccn3ncc(-c4ccc(Cl)cc4)c23)CC1 (stereo not drawn) [Compound P-0090, 4-(3-(4-chlorophenyl)pyrazolo[1,5-a]pyrazin-4-yl)cyclohex-3-ene-1-carbonitrile] | 0.1 to 100 | 0.1 to 100 | – | – |
| CC(C)(O)Cn1ncc2cc(-c3cnn4ccnc(C#CC(C)(C)C(N)=O)c34)ccc21 [Compound P-0091, 4-(3-(1-(2-hydroxy-2-methylpropyl)-1H-indazol-5-yl)pyrazolo[1,5-a]pyrazin-4-yl)-2,2-dimethylbut-3-ynamide] | 0.1 to 100 | 0.1 to 100 | – | – |
| CCCS(=O)(=O)Nc1ccc2cc(-c3cnn4ccnc(C5=CCC(C#N)CC5)c34)ccc2n1 (stereo not drawn) [Compound P-0094, N-(6-(4-(4-cyanocyclohex-1-en-1-yl)pyrazolo[1,5-a]pyrazin-3-yl)quinolin-2-yl)propane-1-sulfonamide] | 0.1 to 100 | 0.1 to 100 | – | – |
| CC(C)(C#Cc1nccn2ncc(-c3ccc4c(cnn4C(F)F)c3)c12)C(N)=O [Compound P-0095, 4-(3-(1-(difluoromethyl)-1H-indazol-5-yl)pyrazolo[1,5-a]pyrazin-4-yl)-2,2-dimethylbut-3-ynamide] | 0.1 to 100 | 0.1 to 100 | – | – |
| N#CC1CC=C(c2nccn3ncc(-c4ccc(-c5cnn(CC6(C#N)CC6)c5)cc4)c23)CC1 (stereo not drawn) [Compound P-0096, 4-(3-(4-(1-((1-cyanocyclopropyl)methyl)-1H-pyrazol-4-yl)phenyl)pyrazolo[1,5-a]pyrazin-4-yl)cyclohex-3-ene-1-carbonitrile] | 0.1 to 100 | 0.1 to 100 | – | – |
| Cc1cc(-c2cnn3ccnc(C4=CCC(C#N)CC4)c23)ccc1C#N (stereo not drawn) [Compound P-0097, 4-(4-(4-cyanocyclohex-1-en-1-yl)pyrazolo[1,5-a]pyrazin-3-yl)-2-methylbenzonitrile] | 0.1 to 100 | 100 to 1000 | – | – |
| N#CCCn1cc(-c2ccc(-c3cnn4ccnc(C5CCC(C#N)CC5)c34)cc2)cn1 (stereo not drawn) [Compound P-0098, 4-(3-(4-(1-(2-cyanoethyl)-1H-pyrazol-4-yl)phenyl)pyrazolo[1,5-a]pyrazin-4-yl)cyclohexane-1-carbonitrile] | 0.1 to 100 | 0.1 to 100 | – | – |
| CC(C)(C#Cc1nccn2ncc(-c3ccc(N4CCOCC4)c(F)c3)c12)C(N)=O [Compound P-0099, 4-(3-(3-fluoro-4-morpholinophenyl)pyrazolo[1,5-a]pyrazin-4-yl)-2,2-dimethylbut-3-ynamide] | 0.1 to 100 | 100 to 1000 | – | – |
| N#CCCn1cc(-c2ccc(-c3cnn4ccnc(C5=CCC(C#N)CC5)c34)cc2)cn1 (stereo not drawn) [Compound P-0100, 4-(3-(4-(1-(2-cyanoethyl)-1H-pyrazol-4-yl)phenyl)pyrazolo[1,5-a]pyrazin-4-yl)cyclohex-3-ene-1-carbonitrile] | 0.1 to 100 | 0.1 to 100 | – | – |
| N#CC1CCC(c2nccn3ncc(-c4ccc(N5CCOCC5)c(F)c4)c23)CC1 (stereo not drawn) [Compound P-0101, 4-(3-(3-fluoro-4-morpholinophenyl)pyrazolo[1,5-a]pyrazin-4-yl)cyclohexane-1-carbonitrile] | – | – | 0.1 to 100 | 100 to 1000 |
| N#CC1CC=C(c2nccn3ncc(-c4ccc(N5CCOCC5)c(F)c4)c23)CC1 (stereo not drawn) [Compound P-0102, 4-(3-(3-fluoro-4-morpholinophenyl)pyrazolo[1,5-a]pyrazin-4-yl)cyclohex-3-ene-1-carbonitrile] | 0.1 to 100 | 0.1 to 100 | – | – |
| N#CC1CC=C(c2nccn3ncc(-c4cnn(-c5ccc(F)cc5)c4)c23)CC1 (stereo not drawn) [Compound P-0103, 4-(3-(1-(4-fluorophenyl)-1H-pyrazol-4-yl)pyrazolo[1,5-a]pyrazin-4-yl)cyclohex-3-ene-1-carbonitrile] | 0.1 to 100 | 100 to 1000 | – | – |
| COc1ccc(-c2cnn3ccnc(C4=CCC(C#N)CC4)c23)cc1F (stereo not drawn) [Compound P-0104, 4-(3-(3-fluoro-4-methoxyphenyl)pyrazolo[1,5-a]pyrazin-4-yl)cyclohex-3-ene-1-carbonitrile] | 0.1 to 100 | 0.1 to 100 | – | – |
| N#CC1CC=C(c2nccn3ncc(-c4ccc(C(N)=O)c(F)c4)c23)CC1 (stereo not drawn) [Compound P-0105, 4-(4-(4-cyanocyclohex-1-en-1-yl)pyrazolo[1,5-a]pyrazin-3-yl)-2-fluorobenzamide] | 0.1 to 100 | 100 to 1000 | – | – |
| CC(C)(O)Cn1cc2cc(-c3cnn4ccnc(C5=CCC(C#N)CC5)c34)ccc2n1 (stereo not drawn) [Compound P-0106, 4-(3-(2-(2-hydroxy-2-methylpropyl)-2H-indazol-5-yl)pyrazolo[1,5-a]pyrazin-4-yl)cyclohex-3-ene-1-carbonitrile] | 0.1 to 100 | 100 to 1000 | – | – |
